Values quoted from earlier work, collected in paper PMC3807243 (Biochemical pharmacology, 2012).
Like-named read-outs stand apart in the source and are kept apart here.

Test system: EphB4
Settings: ref [38]–[40]

Sequence	IC50 (read-out: IC50 for inhibition of ephrin-B2 binding to EphB4) [µM]	IC50 (read-out: IC50 for inhibition of EphB4 binding) [µM]	Binding affinity for EphB4
TNYLFSPNGPIA	~150		
TNYLFSPNGPIARAW [TNYL-RAW]		~0.015	low nanomolar
